Reference: patent publication US4731109A, “Herbicidal 2-haloacetanilides” (Monsanto Company, priority 1982, dated 1988)
Read-outs that look alike come from different tables or passages of the source.

Tests used:
Test in all cases: Field pre-emergence selectivity test
Assay type in all cases: in vivo
wild proso millet = conditions: 1008 h, 6 weeks, read-out: Percent Inhibition; for inhibition at 560 g/ha: 0.56 Kg/Ha; for inhibition at 1120 g/ha: 1.12 Kg/Ha; for inhibition at 2240 g/ha: 2.24 Kg/Ha; for inhibition at 4480 g/ha: 4.48 Kg/Ha
Experimental: (§1) The compound of Examples 1 and 2 was also tested in the field to determine its pre-emergence selectivity against foxtail (spp), barnyardgrass, wild proso millet, smartweed, lambsquarters and pigweed in a plurality of crops; the data (representing three replicate runs) are shown in Table VII for both surface application (S.A.) and soil incorporation (PPI, i.e., preplant incorporation) of the herbicide. The seeds were planted in a fine seedbed of silt loam of intermediate moisture. The seeds were planted at a depth of two inches (5.08 cm). First rainfall (0.2"; 0.51 cm) occurred the day following treatment, the second rain (0.25"; […]) two days after treatment; cumulative rainfall 22 days after treatment was 1.8" (4.57 cm). Observations were made 6 weeks after treatment.

Field Corn = conditions: Zea mays, 1008 h, 6 weeks, read-out: Percent Inhibition; for inhibition at 560 g/ha: 0.56 Kg/Ha; for inhibition at 1120 g/ha: 1.12 Kg/Ha; for inhibition at 2240 g/ha: 2.24 Kg/Ha; for inhibition at 4480 g/ha: 4.48 Kg/Ha
Experimental: as §1

soybeans = conditions: Glycine max, 1008 h, 6 weeks, read-out: Percent Inhibition; for inhibition at 560 g/ha: 0.56 Kg/Ha; for inhibition at 1120 g/ha: 1.12 Kg/Ha; for inhibition at 2240 g/ha: 2.24 Kg/Ha; for inhibition at 4480 g/ha: 4.48 Kg/Ha
Experimental: as §1

Bush Bean = conditions: 1008 h, 6 weeks, read-out: Percent Inhibition; for inhibition at 560 g/ha: 0.56 Kg/Ha; for inhibition at 1120 g/ha: 1.12 Kg/Ha; for inhibition at 2240 g/ha: 2.24 Kg/Ha; for inhibition at 4480 g/ha: 4.48 Kg/Ha
Experimental: as §1

pigweed = conditions: Amaranthus retroflexus, 1008 h, 6 weeks, read-out: Percent Inhibition; for inhibition at 560 g/ha: 0.56 Kg/Ha; for inhibition at 1120 g/ha: 1.12 Kg/Ha
Experimental: as §1

Sorghum = conditions: 1008 h, 6 weeks, read-out: Percent Inhibition; for inhibition at 560 g/ha: 0.56 Kg/Ha; for inhibition at 1120 g/ha: 1.12 Kg/Ha; for inhibition at 2240 g/ha: 2.24 Kg/Ha; for inhibition at 4480 g/ha: 4.48 Kg/Ha
Experimental: as §1

Barnyardgrass = conditions: Echinochloa crus-galli, 1008 h, 6 weeks, read-out: Percent Inhibition; for inhibition at 560 g/ha: 0.56 Kg/Ha; for inhibition at 1120 g/ha: 1.12 Kg/Ha; for inhibition at 2240 g/ha: 2.24 Kg/Ha; for inhibition at 4480 g/ha: 4.48 Kg/Ha
Experimental: as §1

foxtail (spp) = conditions: Setaria, 1008 h, 6 weeks, read-out: Percent Inhibition; for inhibition at 560 g/ha: 0.56 Kg/Ha; for inhibition at 1120 g/ha: 1.12 Kg/Ha; for inhibition at 2240 g/ha: 2.24 Kg/Ha; for inhibition at 4480 g/ha: 4.48 Kg/Ha
Experimental: as §1

Smartweed = conditions: 1008 h, 6 weeks, read-out: Percent Inhibition; for inhibition at 1120 g/ha: 1.12 Kg/Ha; for inhibition at 2240 g/ha: 2.24 Kg/Ha
Experimental: as §1

SMILES: CC(C)OCN(C(=O)CCl)c1ccccc1C(F)(F)F [Example 2, N--(isopropoxymethyl)-2'-trifluoromethyl-2-chloroacetanilide]
- inhibition at 560 g/ha (wild proso millet; P.P.I.): 35%
- inhibition at 1120 g/ha (wild proso millet; P.P.I.): 48%
- inhibition at 2240 g/ha (wild proso millet; P.P.I.): 68%
- inhibition at 4480 g/ha (wild proso millet; P.P.I.): 87%
- inhibition at 560 g/ha (wild proso millet; S.A.): 27%
- inhibition at 1120 g/ha (wild proso millet; S.A.): 63%
- inhibition at 2240 g/ha (wild proso millet; S.A.): 75%
- inhibition at 4480 g/ha (wild proso millet; S.A.): 93%
- inhibition at 560 g/ha (Field Corn; P.P.I.): 0%
- inhibition at 1120 g/ha (Field Corn; P.P.I.): 0%
- inhibition at 2240 g/ha (Field Corn; P.P.I.): 0%
- inhibition at 4480 g/ha (Field Corn; P.P.I.): 13%
- inhibition at 560 g/ha (Field Corn; S.A.): 0%
- inhibition at 1120 g/ha (Field Corn; S.A.): 0%
- inhibition at 2240 g/ha (Field Corn; S.A.): 0%
- inhibition at 4480 g/ha (Field Corn; S.A.): 10%
- inhibition at 560 g/ha (soybeans; P.P.I.): 3%
- inhibition at 1120 g/ha (soybeans; P.P.I.): 0%
- inhibition at 2240 g/ha (soybeans; P.P.I.): 13%
- inhibition at 4480 g/ha (soybeans; P.P.I.): 28%
- inhibition at 560 g/ha (soybeans; S.A.): 0%
- inhibition at 1120 g/ha (soybeans; S.A.): 0%
- inhibition at 2240 g/ha (soybeans; S.A.): 3%
- inhibition at 4480 g/ha (soybeans; S.A.): 10%
- inhibition at 560 g/ha (Bush Bean; P.P.I.): 5%
- inhibition at 1120 g/ha (Bush Bean; P.P.I.): 13%
- inhibition at 2240 g/ha (Bush Bean; P.P.I.): 22%
- inhibition at 4480 g/ha (Bush Bean; P.P.I.): 63%
- inhibition at 560 g/ha (Bush Bean; S.A.): 0%
- inhibition at 1120 g/ha (Bush Bean; S.A.): 0%
- inhibition at 2240 g/ha (Bush Bean; S.A.): 5%
- inhibition at 4480 g/ha (Bush Bean; S.A.): 33%
- inhibition at 560 g/ha (pigweed; P.P.I.): 33%
- inhibition at 1120 g/ha (pigweed; P.P.I.): 85%
- inhibition at 2240 g/ha (pigweed; P.P.I., 2.24 Kg/Ha): 85%
- inhibition at 4480 g/ha (pigweed; P.P.I., 4.48 Kg/Ha): 88%
- inhibition at 560 g/ha (pigweed; S.A.): 0%
- inhibition at 1120 g/ha (pigweed; S.A.): 0%
- inhibition at 560 g/ha (Sorghum; P.P.I.): 7%
- inhibition at 1120 g/ha (Sorghum; P.P.I.): 27%
- inhibition at 2240 g/ha (Sorghum; P.P.I.): 38%
- inhibition at 4480 g/ha (Sorghum; P.P.I.): 90%
- inhibition at 560 g/ha (Sorghum; S.A.): 0%
- inhibition at 1120 g/ha (Sorghum; S.A.): 0%
- inhibition at 2240 g/ha (Sorghum; S.A.): 5%
- inhibition at 4480 g/ha (Sorghum; S.A.): 33%
- inhibition at 560 g/ha (Barnyardgrass; P.P.I.): 85%
- inhibition at 1120 g/ha (Barnyardgrass; P.P.I.): 88%
- inhibition at 2240 g/ha (Barnyardgrass; P.P.I.): 95%
- inhibition at 4480 g/ha (Barnyardgrass; P.P.I.): 100%
- inhibition at 560 g/ha (Barnyardgrass; S.A.): 50%
- inhibition at 1120 g/ha (Barnyardgrass; S.A.): 87%
- inhibition at 2240 g/ha (Barnyardgrass; S.A.): 90%
- inhibition at 4480 g/ha (Barnyardgrass; S.A.): 97%
- inhibition at 560 g/ha (foxtail (spp); P.P.I.): 77%
- inhibition at 1120 g/ha (foxtail (spp); P.P.I.): 78%
- inhibition at 2240 g/ha (foxtail (spp); P.P.I.): 87%
- inhibition at 4480 g/ha (foxtail (spp); P.P.I.): 100%
- inhibition at 560 g/ha (foxtail (spp); S.A.): 50%
- inhibition at 1120 g/ha (foxtail (spp); S.A.): 85%
- inhibition at 2240 g/ha (foxtail (spp); S.A.): 90%
- inhibition at 4480 g/ha (foxtail (spp); S.A.): 97%
- inhibition at 1120 g/ha (Smartweed; P.P.I.): 75%
- inhibition at 2240 g/ha (Smartweed; P.P.I.): 95%
- inhibition at 560 g/ha (Smartweed; S.A., 0.56 Kg/Ha): 0%
- inhibition at 1120 g/ha (Smartweed; S.A.): 10%
- inhibition at 2240 g/ha (Smartweed; S.A.): 20%
- inhibition at 4480 g/ha (Smartweed; S.A., 4.48 Kg/Ha): 63%
